Source: patent publication US8703726B2, “Methods for treating prostate conditions” (PTC Therapeutics, Inc., priority 2009, dated 2014)
Read-outs that look alike come from different tables or passages of the source.

Legend:
[1] = system: HT1080 cells; assay: Cell cycle analysis by propidium iodide flow cytometry in HT1080 cells (% cells in S-phase, Table 24); format: cell-based, human; settings: same tumor cells
Procedure: Experimental Design. […] After treatment, cells were trypsinized, and stained with propidium iodide (PI) dye to measure DNA content of individual cells by flow cytometry. Output comprised histograms showing relative DNA content in 10,000 cells.
While compounds which cause greater than 20% of the cells to accumulate in S-phase at 100 nM are considered active, a larger percentage of cells may be accumulated in S-phase at lower doses depending on the Compound, as shown in FIG. 12 for example.

[2] = system: LNCaP prostate tumor cells; assay: LNCaP tumors in SCID mice: Compound #10 as monotherapy and with bicalutamide
Procedure: (§1) Male C.B.17 SCID mice (Charles River Laboratory; Wilmington, Mass.) were inoculated with LNCaP prostate tumor cells (6.1×10^6 cells/mouse) obtained from the ATCC (Manassas, Va.). […] Mice were inoculated using a 25 gauge needle in the right flank in a volume of 0.2 mL. A total of 95 mice were injected, of which 32 were used.
(§2) Twenty-seven days after inoculation, the mice were randomized into 4 groups as outlined in Table 33. […] Treatment started on Day 0 and continued through Day 30.
(§3) Body Weight: One day prior to the initiation of the study, the mice were weighed. Thereafter, mice were weighed every week and on the day that the study was terminated.
(§4) Tumor Size: Tumors were measured every 3 to 4 days using digital calipers. To calculate tumor volume, the following calculation was used, where L equals the longest dimension measurement and W equals the shortest dimension measurement:
(§5) Tumor growth was calculated as: [1-[(final tumor size minus initial tumor size in test compound treated-mice)/(final tumor size minus initial tumor size in vehicle-treated mice)]×100%
(§6) Percent change in body weight was calculated as: [(Body weight on Day of study)−(initial body weight)/(initial body weight)]×100%
(§7) Differences in tumor size, tumor growth, and body weight change among groups were analyzed by ANOVA (analysis of variance) (SigmaStat 3.0).

[3] = system: LNCaP prostate tumor cells; settings: mouse, in vivo, po, 25 mg/kg
Procedure: as §1, §2, §3, §4, §5, §6, §7

[4] = system: LNCaP prostate tumor cells; assay: LNCaP tumors in SCID mice: Compound #10 as monotherapy and with docetaxel
Procedure: as §1
(§8) Treatment started on Day 0 and continued through Day 31.
as §3, §4
(§9) Data Analysis: Tumor growth was calculated as: [1-[(final tumor size minus initial tumor size in test compound treated-mice)/(final tumor size minus initial tumor size in vehicle-treated mice)]×100%
as §6, §7

[5] = system: LNCaP prostate tumor cells; settings: mouse, in vivo, iv, 3 mg/kg
Procedure: as §1, §8, §3, §4, §9, §6, §7

[6] = system: PC3 xenografts; assay: PC3 tumors in mice: Compound #10 as monotherapy and with docetaxel
Procedure: PC3 cells (CRL 1435) obtained from the American Type Tissue Collection (ATCC, Manassas, Va.) were thawed and seeded at 0.5×10^7 cells per 175 mm^2 flask. Cells were fed and expanded on a regular schedule to reach a given density prior to passage. Flasks were between 80-90% confluent, but not >95% confluent on the day of harvest. Harvest occurred ˜48 hr after the previous split to allow for full recovery.
To harvest the cells, medium was removed from the flasks and the cell layers rinsed with 37° C. PBS. A volume of 3 mL trypsin-EDTA was added per 175 cm^2 surface area and incubated at room temperature for 5 minutes until the cells detached. The cells were collected in 7-10 mL ice cold complete medium and were transferred to a conical tube. The tube was placed immediately on ice. After all flasks were harvested, the cells were pelleted by centrifugation at 4° C. Cells were re-suspended at 2.5×10^7 cells/mL in Hank's Salt Solution and 10 mM HEPES. Cells were stored on ice until the time of tumor inoculation (which was less than 1 h later).
Tumor Cell Injection: Tumor cells were kept on ice at all times. […] A 25-gauge needle was used for tumor cell injections. Tumor cells were injected in a volume of 0.2 mL subcutaneously. A total of 100 mice were inoculated, of which 69 were used in the study.
Seventeen days after inoculation, the mice were randomized into six groups. At this time, the majority of the tumors had reached a volume of 170-415 mm^3. Randomization of the mice was performed by using the formula RAND ( )*5000 from Microsoft Excel. […] Animals with tumors that were not within the 170-415 mm^3 range were excluded from the study.
Furthermore, all animals in a group were taken off study when the mean tumor size in that group reached 1000 mm^3.
as §4
Differences in mean tumor size, tumor growth, and body weight change were compared across groups using analysis of variance (ANOVA) (SigmaStat 3.0).
To calculate the time to progression, defined as the number of days for a tumor to reach 1000 mm^3, tumor growth vs time was individually plotted for each animal. The time to reach 1000 mm^3 estimated for each animal. […] The median and mean time for each treatment group to reach 1000 mm^3 was then calculated and groups were compared using ANOVA (SigmaStat 3.0).
as §3

[7] = Bicalutamide, 25 mg/kg QD on Days 0, 1, 2, 3, 6, 7, 8, 9, and 10, L21 vehicle, QD, oral
[8] = Docetaxel, 3 mg/kg IV on Days 1 and 8, Vehicle, QD, daily

How did the “effect of comparator on cell cycle (and VEGF production) (data not shown)” value [1] turn out when `NC(Cn1ccc(=O)c(O)c1)C(=O)O` (centres unmarked) [mimosine] was run?
Its value is “does not delay or prolong the cell cycle or reduce VEGF production”.

How did the “Percent Inhibition Relative to Vehicle: Tumor Growth From Day 0 to 31” value [2, 7] turn out when `CC(O)(CS(=O)(=O)c1ccc(F)cc1)C(=O)Nc1ccc(C#N)c(C(F)(F)F)c1` (centres unmarked) [bicalutamide] was run?
The value was 9.3%^.

And the “Percent Inhibition Relative to Vehicle: Tumor Volume at Day 31” value [2, 7]?
The value was 7.2%^.

And the “mean±SD tumor size” value ([2]; Day 30, Compound #10 10 mg/kg PO QD, bicalutamide 25 mg/kg QD)?
Its value is 1059±321 mm3.

What about the “Day of Maximal Loss (body weight)” value [3] of the same compound?
The value was 20 days.

What about the “Maximal Body Weight Loss From Initial Weight” value [3] of the same compound?
Its value is −5.3%.

How did the “mean±SD tumor size” value ([4]; Day 31, Compound #10 10 mg/kg PO QD, docetaxel 3 mg/kg Days 1 and 8) turn out when `CC(=O)O[C@@]12CO[C@@H]1C[C@H](O)[C@@]1(C)C(=O)[C@H](O)C3=C(C)[C@@H](OC(=O)[C@H](O)[C@@H](NC(=O)OC(C)(C)C)c4ccccc4)C[C@@](O)([C@@H](OC(=O)c4ccccc4)[C@H]21)C3(C)C` [docetaxel] was run?
Its value is 1017±458 mm3.

And the “inhibition of tumor size or of the increase in tumor size versus vehicle” value ([4]; Day 31, docetaxel 3 mg/kg Days 1 and 8)?
Its value is “No statistically significant differences”.

What about the “Percent Inhibition Relative to Vehicle: Tumor Growth From Day 0 to 31” value [4, 8] of the same compound?
Its value is 17%.

And the “Percent Inhibition Relative to Vehicle: Tumor Volume at Day 31” value [4, 8]?
The value was 12%.

And the “Day of Maximal Loss (body weight)” value [5]?
Its value is “(Day 13)”.

What about the “Maximal Body Weight Loss From Initial Weight” value [5] of the same compound?
The value was −15%.

What about the “Average Time on Therapy” value ([6]; 3 mg/kg IV Day 1, 8 and 10 mg/kg Day 29, vehicle 22) of the same compound?
The value was 23 days.

And the “Median Time to Reach 1000 mm^3 (time to progression)” value ([6]; 3 mg/kg IV Day 1, 8 and 10 mg/kg Day 29, vehicle 23)?
Its value is 22 days.

What about the “body weight change” value ([6]; PC3 tumor-bearing mice, Day 35 / Day 42) of the same compound?
Its value is “significantly more weight loss”.

And the “median time to progression (tumor ≧1000 mm^3)” value ([6]; docetaxel IV 3 mg/kg on Day 1 and at 8 and 10 mg/kg on Day 29)?
The value was 22 days.

What about the “tumors vs vehicle-treated mice” value ([6]; docetaxel IV, up to Day 35) of the same compound?
The value was “not significantly different from the tumors in vehicle-treated mice”.
